According to ChEMBL document CHEMBL1154516, “Highly efficacious factor Xa inhibitors containing alpha-substituted phenylcycloalkyl P4 moieties” (Bioorg Med Chem Lett, 2009):

Assays:
in vivo [1] = details: dog, iv, 0.5 mg/kg
in vivo [2] = details: dog, iv, 0.5 mg/kg; remark: listed apart in the source
in vivo [3] = details: dog, po, 0.2 mg/kg
in vivo [4] = details: dog, po, 0.2 mg/kg; remark: listed apart in the source
in vitro [5] = details: human, liver microsomes
in vitro [6] = details: dog, liver microsomes
physchem = details: octanol/water
Canis familiaris = species: Canis familiaris; details: dog, in vivo, po, 0.2 mg/kg

Row | Compound | Vd (in vivo [1]) | clearance (in vivo [2]) | half-life (in vivo [3]) | bioavailability (in vivo [4]) | half-life (in vitro [5]) | half-life (in vitro [6]) | logP (physchem) | t1/2 (Canis familiaris)
1 | COc1ccc(-n2nc(C(N)=O)c3c2C(=O)N(c2ccc(C4(N(C)CCO)CC4)cc2)CC3)cc1.O=C(O)C(F)(F)F | 4.1 L/kg | 20 mL/min/kg | 4.3 h | 67% | 0.783 h | 3 h | – | –
2 | COc1ccc(-n2nc(C#N)c3c2C(=O)N(c2ccc(C4(CN5CCOCC5)CC4)cc2)CC3)cc1 | – | – | – | – | – | – | 4 | –
3 | COc1ccc(-n2nc(C(N)=O)c3c2C(=O)N(c2ccc(N4CCCCC4=O)cc2)CC3)cc1 [APIXABAN] | 0.2 L/kg | 0.333 mL/min/kg | – | – | – | – | – | –
4 | COc1ccc(-n2nc(C(N)=O)c3c2C(=O)N(c2ccc(C4(CN5CCCC5)CC4)cc2)CC3)cc1.O=C(O)C(F)(F)F | 7.1 L/kg | 28.3 mL/min/kg | 4 h | 6% | > 3.33 h | 1 h | – | –
5 | COc1ccc(-n2nc(C(F)(F)F)c3c2C(=O)N(c2ccc(C4(CN5CCCC5)CC4)cc2)CC3)cc1 | – | – | – | – | – | – | 3.4 | –
6 | COc1ccc(-n2nc(C(N)=O)c3c2C(=O)N(c2ccc(C4(CN5CCOCC5)CC4)cc2)CC3)cc1 | – | – | – | – | – | – | 3.3 | –
7 | COc1ccc(-n2nc(C(N)=O)c3c2C(=O)N(c2ccc(C4(CC(N)=O)CC4)cc2)CC3)cc1.O=C(O)C(F)(F)F | 0.65 L/kg | 8.17 mL/min/kg | 1.9 h | 27% | 1.62 h | 1.65 h | – | –
8 | COc1ccc(-n2nc(S(C)(=O)=O)c3c2C(=O)N(c2ccc(C4(Cn5ccnc5C)CC4)cc2)CC3)cc1.O=C(O)C(F)(F)F | 4 L/kg | 70 mL/min/kg | – | 0.2% | 0.0833 h | – | – | –
9 | COc1ccc(-n2nc(S(C)(=O)=O)c3c2C(=O)N(c2ccc(C4(CN5CCOCC5)CC4)cc2)CC3)cc1.O=C(O)C(F)(F)F | 1.9 L/kg | 13.3 mL/min/kg | 4 h | 61% | 0.417 h | – | – | –
10 | CNC1(c2ccc(N3CCc4c(C(N)=O)nn(-c5ccc(OC)cc5)c4C3=O)cc2)CC1.O=C(O)C(F)(F)F | 4.4 L/kg | 30 mL/min/kg | 1.6 h | 15% | 2.43 h | 0.6 h | – | –
11 | CN(C)Cc1nccn1-c1ccc(NC(=O)c2cc(C(F)(F)F)nn2-c2ccc3onc(N)c3c2)c(F)c1 [RAZAXABAN] | – | – | – | – | – | – | – | 3.4 h
12 | COc1ccc(N2N=C(S(C)(=O)=O)C3CCN(c4ccc(C5(CN6CCCC6)CC5)cc4)C(=O)C32)cc1.O=C(O)C(F)(F)F (centres undefined) | 7.7 L/kg | 55 mL/min/kg | 2.3 h | 100% | 0.617 h | – | – | –
13 | CNCC1(c2ccc(N3CCc4c(C(F)(F)F)nn(-c5ccc(OC)cc5)c4C3=O)cc2)CC1 | – | – | – | – | – | – | 3.2 | –
14 | COc1ccc(-n2nc(C(N)=O)c3c2C(=O)N(c2ccc(C4(CN5CCCC5=O)CC4)cc2)CC3)cc1.O=C(O)C(F)(F)F | 0.2 L/kg | 4.17 mL/min/kg | 0.99 h | 3.1% | 0.167 h | 0.183 h | – | –
15 | COc1ccc(-n2nc(C#N)c3c2C(=O)N(c2ccc(C4(CN(C)C)CC4)cc2)CC3)cc1.O=C(O)C(F)(F)F | 11.7 L/kg | 22.8 mL/min/kg | 6.4 h | 41% | 2.97 h | 1.22 h | 2.5 | –
16 | COc1ccc(-n2nc(C(F)(F)F)c3c2C(=O)N(c2ccc(C4(CN(C)C)CC4)cc2)CC3)cc1 | – | – | – | – | – | – | 3.4 | –
